Our source for the MIC and IC50 values is ChEMBL document CHEMBL1152526, “Synthesis of C(7) modified chrysin derivatives designing to inhibit beta-ketoacyl-acyl carrier protein synthase III (FabH) as antibiotics” (Bioorg Med Chem, 2009).

In one assay the test system is Pseudomonas fluorescens. The assay can be described thus: Antibacterial activity against Pseudomonas fluorescens after 24 hrs by MTT assay. The assay is classed as functional. Background: Tetrazolium assays rely on reduction of a dye to a coloured formazan, in cell work by metabolically active cells.
The next assay deals with Bacillus subtilis. Briefly: Antibacterial activity against Bacillus subtilis after 24 hrs by MTT assay. The assay is classed as functional.
A further assay relates to Escherichia coli. Briefly: Antibacterial activity against Escherichia coli after 24 hrs by MTT assay. The assay is classed as functional.
Another assay concerns Staphylococcus aureus. Briefly: Antibacterial activity against Staphylococcus aureus after 24 hrs by MTT assay. The assay is classed as functional.
Assay [1] in a line: Inhibition of Escherichia coli FabH overexpressed in Escherichia coli DH10B cells by liquid scintillation counting.

The structures appear in SMILES notation. pIC50: −log10 of the molar value. Converted amounts (≈) assume the structure as drawn.

Broadly, the MIC is the least concentration at which growth counts as inhibited. One may read the pIC50 as the IC50 on a negative log10 scale, so that one unit is a factor of ten. Read a high pIC50 as a small IC50.

Regarding `O=c1cc(-c2ccccc2)oc2cc(OCCN3CCCC3)cc(O)c12`, the MIC was 12.5 µg/mL (≈ 35.6 µM) in the assay on Pseudomonas fluorescens, 25 µg/mL (≈ 71.1 µM) against Bacillus subtilis, 6.25 µg/mL (≈ 17.8 µM) in the assay with Escherichia coli and 25 µg/mL (≈ 71.1 µM) with Staphylococcus aureus.
Regarding `CCCCN(CCCC)CCCOc1cc(O)c2c(=O)cc(-c3ccccc3)oc2c1`, the MIC with Pseudomonas fluorescens, in the assay on Bacillus subtilis, against Escherichia coli and against Staphylococcus aureus was > 50 µg/mL throughout.
Consider `CCCN(CCC)CCOc1cc(O)c2c(=O)cc(-c3ccccc3)oc2c1`, for which the MIC with Pseudomonas fluorescens, in the assay with Bacillus subtilis, against Escherichia coli and against Staphylococcus aureus was > 50 µg/mL throughout.
Take `O=c1cc(-c2ccccc2)oc2cc(OCCCN3CCNCC3)cc(O)c12`: the MIC against Pseudomonas fluorescens came out at 12.5 µg/mL (≈ 32.9 µM); against Bacillus subtilis, 12.5 µg/mL (≈ 32.9 µM); with Escherichia coli, 3.13 µg/mL (≈ 8.23 µM); in the assay on Staphylococcus aureus, 6.25 µg/mL (≈ 16.4 µM). For the same compound, in assay [1], the pIC50 is 5.18.
`CN1CCN(CCOc2cc(O)c3c(=O)cc(-c4ccccc4)oc3c2)CC1`: the MIC in the assay on Pseudomonas fluorescens stood at 25 µg/mL (≈ 65.7 µM); in the assay with Bacillus subtilis, 50 µg/mL (≈ 131 µM); against Escherichia coli it was 12.5 µg/mL (≈ 32.9 µM); in the assay with Staphylococcus aureus it was 25 µg/mL (≈ 65.7 µM).
As for `O=c1cc(-c2ccccc2)oc2cc(OCCN3CCCCC3)cc(O)c12`, the MIC is 12.5 µg/mL (≈ 34.2 µM) against Pseudomonas fluorescens, 25 µg/mL (≈ 68.4 µM) against Bacillus subtilis, 12.5 µg/mL (≈ 34.2 µM) against Escherichia coli and 12.5 µg/mL (≈ 34.2 µM) in the assay on Staphylococcus aureus.
`CCN(CC)CCCOc1cc(O)c2c(=O)cc(-c3ccccc3)oc2c1`: the MIC in the assay on Pseudomonas fluorescens, in the assay with Bacillus subtilis, against Escherichia coli and in the assay with Staphylococcus aureus was > 50 µg/mL throughout.
As for `NCCCNCCOc1cc(O)c2c(=O)cc(-c3ccccc3)oc2c1`, the MIC in the assay on Pseudomonas fluorescens, in the assay with Bacillus subtilis, in the assay with Escherichia coli and in the assay with Staphylococcus aureus was > 50 µg/mL throughout.
Turning to `CCCNCCCOc1cc(O)c2c(=O)cc(-c3ccccc3)oc2c1`, the MIC was found to be 12.5 µg/mL (≈ 35.4 µM) in the assay with Pseudomonas fluorescens, 25 µg/mL (≈ 70.7 µM) against Bacillus subtilis, 12.5 µg/mL (≈ 35.4 µM) in the assay on Escherichia coli and 12.5 µg/mL (≈ 35.4 µM) in the assay on Staphylococcus aureus.
On to `CCCNCCOc1cc(O)c2c(=O)cc(-c3ccccc3)oc2c1`, for which the MIC turned out to be 25 µg/mL (≈ 73.7 µM) against Pseudomonas fluorescens, 50 µg/mL (≈ 147 µM) against Bacillus subtilis, 25 µg/mL (≈ 73.7 µM) against Escherichia coli and 50 µg/mL (≈ 147 µM) against Staphylococcus aureus. The compound also had a pIC50 in assay [1] of 4.27.
Consider `NC[C@H]1O[C@H](O[C@H]2[C@H](O)[C@@H](O[C@H]3O[C@H](CO)[C@@H](O)[C@H](N)[C@H]3O)[C@H](N)C[C@@H]2N)[C@H](N)[C@@H](O)[C@@H]1O` [BEKANAMYCIN], for which the MIC with Pseudomonas fluorescens is 3.13 µg/mL (≈ 6.47 µM); with Bacillus subtilis, 1.56 µg/mL (≈ 3.23 µM); with Escherichia coli it was 3.13 µg/mL (≈ 6.47 µM); against Staphylococcus aureus, 1.56 µg/mL (≈ 3.23 µM).
As to `O=c1cc(-c2ccccc2)oc2cc(OCCCNCCO)cc(O)c12`, the MIC is 12.5 µg/mL (≈ 35.2 µM) in the assay on Pseudomonas fluorescens, 12.5 µg/mL (≈ 35.2 µM) with Bacillus subtilis, 6.25 µg/mL (≈ 17.6 µM) with Escherichia coli and 25 µg/mL (≈ 70.3 µM) against Staphylococcus aureus.
Turning to `CCCN(CCC)CCCOc1cc(O)c2c(=O)cc(-c3ccccc3)oc2c1`, the MIC is 25 µg/mL (≈ 63.2 µM) in the assay with Pseudomonas fluorescens, 25 µg/mL (≈ 63.2 µM) in the assay on Bacillus subtilis, 25 µg/mL (≈ 63.2 µM) in the assay with Escherichia coli and > 50 µg/mL in the assay with Staphylococcus aureus.
In the case of `O=c1cc(-c2ccccc2)oc2cc(OCCCN3CCCC3)cc(O)c12`, the MIC amounted to 6.25 µg/mL (≈ 17.1 µM) in the assay with Pseudomonas fluorescens, 6.25 µg/mL (≈ 17.1 µM) with Bacillus subtilis, 1.56 µg/mL (≈ 4.27 µM) in the assay with Escherichia coli and 3.13 µg/mL (≈ 8.57 µM) with Staphylococcus aureus. Further, in assay [1], the pIC50 is 5.51.
Turning to `CCCCNCCCOc1cc(O)c2c(=O)cc(-c3ccccc3)oc2c1`, the MIC was determined as 12.5 µg/mL (≈ 34 µM) in the assay with Pseudomonas fluorescens, 25 µg/mL (≈ 68 µM) with Bacillus subtilis, 12.5 µg/mL (≈ 34 µM) in the assay with Escherichia coli and 12.5 µg/mL (≈ 34 µM) against Staphylococcus aureus.
Regarding `O=c1cc(-c2ccccc2)oc2cc(OCCN3CCNCC3)cc(O)c12`, the MIC against Pseudomonas fluorescens was determined as 6.25 µg/mL (≈ 17.1 µM); in the assay on Bacillus subtilis, 25 µg/mL (≈ 68.2 µM); against Escherichia coli it was 12.5 µg/mL (≈ 34.1 µM); with Staphylococcus aureus, 25 µg/mL (≈ 68.2 µM). For the same compound, the pIC50 in assay [1] was 4.95.
As to `O=c1cc(-c2ccccc2)oc2cc(O)cc(O)c12` [CHRYSIN], the MIC with Pseudomonas fluorescens, in the assay with Bacillus subtilis, against Escherichia coli and with Staphylococcus aureus was > 50 µg/mL each time.
For the compound `CN1CCN(CCCOc2cc(O)c3c(=O)cc(-c4ccccc4)oc3c2)CC1`, the MIC in the assay with Pseudomonas fluorescens is 12.5 µg/mL (≈ 31.7 µM); against Bacillus subtilis, 6.25 µg/mL (≈ 15.8 µM); with Escherichia coli, 6.25 µg/mL (≈ 15.8 µM); with Staphylococcus aureus it was 3.13 µg/mL (≈ 7.93 µM). For the same compound, the negative logarithm of the IC50 (pIC50) in assay [1] was 5.28.
As for `CCCCN(CCCC)CCOc1cc(O)c2c(=O)cc(-c3ccccc3)oc2c1`, the MIC against Pseudomonas fluorescens, in the assay on Bacillus subtilis, with Escherichia coli and in the assay with Staphylococcus aureus was > 50 µg/mL each time.
Take `CCN(CC)CCOc1cc(O)c2c(=O)cc(-c3ccccc3)oc2c1`: the MIC against Pseudomonas fluorescens, with Bacillus subtilis, against Escherichia coli and against Staphylococcus aureus was > 50 µg/mL each time. Moreover, in assay [1], the pIC50 was 4.15.
